Reference: ChEMBL document CHEMBL5608184, “Discovery and mechanistic insights into thieno[3,2-d]pyrimidine and heterocyclic fused pyrimidines inhibitors targeting tubulin for cancer therapy” (Eur J Med Chem, 2024)

Tests used:
SK-OV-3 [1] = assay: Induction of apoptosis in human SK-OV-3 cells assessed as viable cells at 1.25 nM incubated for 48 hrs by Annexin V-APC-A/7-AAD-A staining based flow cytometry (reference value: 97.17 %); assay type: functional; settings: read-out: Activity
SK-OV-3 [2] = assay: Inhibition of cell migration in human SK-OV-3 cells assessed as relative wound density at 5 nM incubated for 24 hrs by wound healing assay (reference value: 74.53 %); assay type: functional; parameters: scale not given: the % may be the effect or the level left

## COc1ccc2c(c1)NC(=O)CN2c1nc(Cl)nc2ccsc12
SK-OV-3 [1]
  viability at 0.00125 µM: 54.3%
SK-OV-3 [2]
  Activity: 7.98%
